Key:
Experiment in all cases: relative viability (nuclei count vs DMSO), 5 days (fraction); higher = more cells survive
[1] = compound: C[C@]1(O)C[C@@H](c2nc(-c3ccc4ccc(-c5ccccc5)nc4c3)c3c(N)nccn32)C1 [Linsitinib] + CS(=O)(=O)N1CCN(Cc2cc3nc(-c4cccc5[nH]ncc45)nc(N4CCOCC4)c3s2)CC1 [Pictilisib] (partner 1 µM)
Summary of the method: (§1)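 Cells from lung cancer lines were seeded into 1536-well plates and, one day later, dosed by pin tool. Treatments were either a single drug or a fixed dose of an anchor drug with five library-drug doses (not always all listed) in √10 steps. After 5 days, nuclei were stained in a one-step fixation (final 0.05% Triton X-100, 1% formaldehyde, 1 ug/ml Hoechst) and counted on 4× images, and relative viability is the treated-to-vehicle nuclei ratio, as the median of duplicate plates.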

[2] = compound: C[C@]1(O)C[C@@H](c2nc(-c3ccc4ccc(-c5ccccc5)nc4c3)c3c(N)nccn32)C1 [Linsitinib] + Cc1nc(NC(=O)N2CCC[C@H]2C(N)=O)sc1-c1ccnc(C(C)(C)C(F)(F)F)c1 [Alpelisib] (partner 2 µM)
Summary of the method: as §1

[3] = compound: C[C@]1(O)C[C@@H](c2nc(-c3ccc4ccc(-c5ccccc5)nc4c3)c3c(N)nccn32)C1 [Linsitinib] + Cc1nc(Nc2ncc(C(=O)Nc3c(C)cccc3Cl)s2)cc(N2CCN(CCO)CC2)n1 [Dasatinib] (partner 0.075 µM)
Summary of the method: as §1

[4] = compound: Cc1ccc(C(=O)N(CCCN)[C@@H](c2nc3cc(Cl)ccc3c(=O)n2Cc2ccccc2)C(C)C)cc1 [Ispinesib] + CC(=O)c1c(C)c2cnc(Nc3ccc(N4CCNCC4)cn3)nc2n(C2CCCC2)c1=O [Palbociclib] (partner 0.5 µM)
Summary of the method: as §1

Row | Cell Line | relative viability ([1]; first compound 0.01 µM) | relative viability ([1]; first compound 0.03162 µM) | relative viability ([1]; first compound 0.1 µM) | relative viability ([1]; first compound 0.3162 µM) | relative viability ([1]; first compound 1 µM) | relative viability ([2]; first compound 0.01 µM) | relative viability ([2]; first compound 0.03162 µM) | relative viability ([2]; first compound 0.1 µM) | relative viability ([2]; first compound 0.3162 µM) | relative viability ([2]; first compound 1 µM) | relative viability ([3]; first compound 0.01 µM) | relative viability ([3]; first compound 0.03162 µM) | relative viability ([3]; first compound 0.1 µM) | relative viability ([3]; first compound 0.3162 µM) | relative viability ([3]; first compound 1 µM) | relative viability ([4]; first compound 0.001 µM) | relative viability ([4]; first compound 0.003162 µM) | relative viability ([4]; first compound 0.01 µM) | relative viability ([4]; first compound 0.03162 µM) | relative viability ([4]; first compound 0.1 µM)
1 | HCC-78 | 0.205 | 0.225 | 0.162 | 0.203 | 0.204 | 0.413 | 0.439 | 0.26 | 0.312 | 0.261 | 0.365 | 0.437 | 0.238 | 0.554 | 0.265 | 0.427 | 0.586 | 0.516 | 0.473 | 0.351
2 | HCC-366 | 0.127 | 0.0857 | 0.0909 | – | 0.108 | 0.416 | 0.239 | 0.446 | 0.242 | 0.201 | 0.644 | 0.606 | 0.488 | 0.543 | 0.174 | 0.289 | 0.448 | 0.497 | 0.5 | 0.0937
3 | HCC-827 | 1.07 | 1.19 | 1.11 | 0.88 | 1.12 | 0.995 | 1.02 | 0.967 | – | 0.915 | 0.398 | 0.389 | 0.311 | 0.597 | 0.423 | 0.496 | 0.49 | 0.58 | 0.543 | 0.477
4 | HOP-62 | 0.894 | 0.715 | 0.934 | – | 0.356 | 0.862 | 1.09 | 0.949 | – | 0.933 | 0.65 | 0.692 | 0.643 | – | 0.565 | 0.448 | 0.548 | 0.617 | 0.516 | 0.388
5 | IA-LM | 0.329 | 0.409 | 0.334 | 0.349 | 0.156 | 0.829 | 0.809 | 0.743 | 0.387 | 0.51 | – | – | – | – | – | – | – | – | – | –
6 | LC-2-ad | 0.423 | 0.369 | 0.409 | 0.396 | 0.269 | 0.84 | 0.73 | 0.822 | 0.633 | 0.733 | 0.481 | 0.31 | 0.385 | 0.271 | 0.236 | 0.541 | 0.54 | 0.566 | 0.482 | 0.272
7 | LCLC-97TM1 | 0.283 | 0.254 | 0.208 | 0.117 | 0.154 | 0.237 | 0.267 | 0.189 | 0.215 | 0.206 | 0.842 | 0.64 | 0.842 | 0.602 | 0.614 | 0.238 | 0.343 | 0.279 | 0.181 | 0.119
8 | LCLC-103H | 0.686 | 0.566 | 0.596 | 0.718 | 0.535 | 0.896 | 0.943 | 0.975 | 1.09 | 0.942 | 0.444 | 0.517 | 0.474 | 0.428 | 0.368 | 0.447 | 0.545 | 0.476 | 0.441 | 0.465
9 | LK-2 | 0.698 | 0.529 | 0.553 | 0.494 | 0.851 | 1.04 | 1.12 | 1.33 | 0.804 | 1.11 | 0.281 | 0.328 | 0.212 | 0.228 | 0.197 | 0.687 | 0.821 | 0.824 | 0.743 | 0.188
10 | LOU-NH91 | 0.49 | 0.515 | 0.503 | 0.523 | 0.457 | 0.743 | 0.656 | 0.7 | 0.76 | 0.602 | 0.561 | 0.612 | 0.545 | 0.645 | 0.456 | 0.535 | 0.548 | 0.513 | 0.52 | 0.336
11 | LU99A | 0.291 | 0.347 | 0.315 | 0.204 | 0.242 | 0.517 | 0.547 | 0.505 | 0.417 | 0.332 | 0.553 | 0.52 | 0.539 | 0.334 | 0.289 | 0.398 | 0.44 | 0.481 | 0.315 | 0.285
12 | LXF-289 | 0.76 | 0.875 | 0.738 | 0.539 | 0.592 | 0.992 | 0.988 | 1.1 | 0.841 | 1.02 | 0.244 | 0.203 | 0.182 | – | 0.191 | 0.629 | 0.666 | 0.674 | 0.619 | 0.589
13 | NCI-H522 | – | – | – | – | – | – | – | – | – | – | 0.829 | 1.03 | 0.902 | – | 0.86 | 1 | 0.965 | 1.01 | 0.903 | 1.02
14 | NCI-H596 | 0.248 | 0.393 | 0.382 | 0.343 | 0.317 | 0.508 | 0.532 | 0.406 | 0.418 | 0.443 | 0.643 | 0.673 | 0.625 | 0.647 | 0.437 | – | – | – | – | –
15 | NCI-H1299 | 0.864 | 0.794 | 0.766 | 0.796 | 0.648 | 1.05 | 1.07 | 1.12 | 1.01 | 1.04 | – | – | – | – | – | – | – | – | – | –
16 | NCI-H1563 | 0.665 | 0.668 | 0.647 | 0.657 | 0.545 | 0.909 | 0.924 | 0.85 | 0.861 | 0.928 | 0.47 | 0.485 | 0.384 | 0.812 | 0.378 | – | – | – | – | –
17 | NCI-H1623 | – | – | – | – | – | – | – | – | – | – | 0.561 | 0.527 | 0.45 | – | 0.415 | – | – | – | – | –
18 | NCI-H1648 | – | – | – | – | – | – | – | – | – | – | – | – | – | – | – | 0.285 | 0.297 | 0.248 | 0.291 | 0.256
19 | NCI-H1650 | 0.529 | 0.485 | 0.556 | 0.138 | 0.356 | – | – | – | – | – | 0.291 | 0.293 | 0.355 | 0.258 | 0.241 | 0.368 | 0.346 | 0.3 | 0.172 | 0.254
20 | NCI-H1703 | 0.29 | – | 0.216 | 0.28 | 0.234 | 0.363 | – | 0.346 | 0.227 | 0.219 | – | – | – | – | – | – | – | – | – | –
21 | NCI-H2342 | – | – | – | – | – | – | – | – | – | – | 0.307 | 0.306 | 0.306 | 0.353 | 0.298 | 0.571 | 0.539 | 0.556 | 0.541 | 0.522
22 | SW 900 | – | – | – | – | – | – | – | – | – | – | 0.537 | 0.739 | 0.85 | 0.319 | 0.322 | 0.566 | 0.638 | 0.609 | 0.624 | 0.321
